In brackets after ≈: the same amount, converted by molar mass.
Legend:
S. aureus ATCC 13709 = experiment: MIC, S. aureus ATCC 13709 (Alamar Blue broth microdilution); type: cell-based; details: Alamar Blue read after overnight incubation at 35° C.; for MIC: Staphylococcus aureus, ATCC13709, S. aureus; for MIC Sa: S. aureus
E. coli ATCC 25922 = experiment: MIC, E. coli ATCC 25922; type: cell-based; details: Alamar Blue read after overnight incubation at 35° C.; for MIC: Escherichia coli, ATCC25922, E. coli; for MIC Ec: E. coli

SMILES	MIC (S. aureus ATCC 13709) [µg/mL]	MIC (E. coli ATCC 25922) [µg/mL]	MIC Sa (S. aureus ATCC 13709) [µg/mL]	MIC Ec (E. coli ATCC 25922) [µg/mL]
CNc1cc(F)cc2c1[nH]c1nc(Oc3cnc(C(C)(C)C)nc3)nc(N3CCC4CNC4C3)c12 (centres unmarked) [4.317]	≤ 0.5	2 (≈ 4.2 µM)		
CCNc1cccc2c1[nH]c1nc(Sc3cnc4ccc[n+]([O-])c4c3)nc(N3CC4C(N)C4C3)c12 (centres unmarked) [1.10]	≤ 0.5	4 (≈ 8.25 µM)		
CNc1cc(F)cc2c1[nH]c1nc(Oc3cnc(C)nc3)nc(N3CC(NC(=O)C(C)NC(=O)C(C)N)C4(CC4)C3)c12 (centres unmarked) [4.145]			1 (≈ 1.73 µM)	8 (≈ 13.9 µM)
CNc1cc(F)cc2c1[nH]c1nc(Oc3cnc(-c4nccn4C)nc3)nc(N3C[C@H](N)C4(CC4)C3)c12 [4.399]	≤ 0.5	2 (≈ 4 µM)		
CNc1cc(F)cc2c1[nH]c1nc(Oc3cnc(C4CC4)nc3)nc(N3CC4C(CN)C4C3)c12 (centres unmarked) [4.249]	≤ 0.5	≤ 0.5		
CNc1ncc(Oc2nc(N3CC4CC(N)C4C3)c3c(n2)[nH]c2c(NC)cc(F)cc23)cn1 (centres unmarked) [4.221]	≤ 0.5	2 (≈ 4.45 µM)		
CNc1cc(F)cc2c1[nH]c1nc(Oc3cncc(-c4cn[nH]c4)c3)nc(N3CC4C(N)C4C3)c12 (centres unmarked) [4.206]	≤ 0.5	4 (≈ 8.48 µM)		
CNc1cccc2c1[nH]c1nc(Oc3cncnc3)nc(N3CC4C(N)C4C3)c12 (centres unmarked) [3.28]	1 (≈ 2.57 µM)	2 (≈ 5.15 µM)		
CNc1cc(F)cc2c1[nH]c1nc(Oc3cncc(C#N)c3)nc(N3CC4C(N)C4C3)c12 (centres unmarked) [4.050]	≤ 0.5	≤ 0.5		
CNc1cc(F)cc2c1[nH]c1nc(Oc3cnc(N4CCCC4=O)nc3)nc(N3C[C@H](N)C4(CC4)C3)c12 [4.346]	≤ 0.5	4 (≈ 7.94 µM)		
CNc1cccc2c1[nH]c1nc(Oc3cnc(C)nc3)nc(N3C[C@@H](N)C4(CC4)C3)c12 [3.48]	2 (≈ 4.8 µM)	8 (≈ 19.2 µM)		
CNc1cc(F)cc2c1[nH]c1nc(Oc3cncc(Cl)c3)nc(N3CC4(CCC4N)C3)c12 (centres unmarked) [4.275]			≤0.5	≤0.5
CNc1cc(F)cc2c1[nH]c1nc(Oc3ccc(C#N)nc3)nc(N3C[C@H](N)C4(CC4)C3)c12 [4.329]			≤0.5	≤0.5
CNc1cc(F)cc2c1[nH]c1nc(Oc3cnc(C(N)=O)nc3)nc(N3C[C@H](N)C4(CC4)C3)c12 [4.375]	≤ 0.5	4 (≈ 8.63 µM)		
CNc1cc(F)cc2c1[nH]c1nc(Oc3cnc4cccnc4c3)nc(N3CC[C@@]4(C[C@H]4N)C3)c12 [4.041]	≤ 0.5	1 (≈ 2.13 µM)		
CNc1cccc2c1[nH]c1nc(Sc3cnc4cccnc4c3)nc(N3CCC(CO)C3)c12 (centres unmarked) [1.53]	≤ 0.5	8 (≈ 17.5 µM)		

SMILES	MIC (S. aureus ATCC 13709) [µg/mL]	MIC (E. coli ATCC 25922) [µg/mL]	MIC Sa (S. aureus ATCC 13709) [µg/mL]	MIC Ec (E. coli ATCC 25922) [µg/mL]
CNc1cc(F)cc2c1[nH]c1nc(Oc3cnc(C)nc3)nc(N3CCC4(CCC4N)CC3)c12 (centres unmarked) [4.139]			≤0.5	≤0.5
NC1CN(c2nc(Sc3cnc4nccnc4c3)nc3[nH]c4ccccc4c23)C1 [1.5]	> 64	> 64		
CNc1cc(F)cc2c1[nH]c1nc(Oc3ccc4c(c3)ncn4C)nc(N3CC4C[C@@H](N)C4C3)c12 (some centres unmarked) [4.358]	≤ 0.5	4 (≈ 8.47 µM)		
CNc1cc(F)cc2c1[nH]c1nc(Oc3cnc(C)nc3)nc(N3CC4CCC(N)CC4C3)c12 (centres unmarked) [4.092]			≤0.5	2 (≈ 4.32 µM)
CNc1cc(F)cc2c1[nH]c1nc(Oc3cncc(OC)c3)nc(N3CC4C(N)C4C3)c12 (centres unmarked) [4.164]	≤ 0.5	1 (≈ 2.3 µM)		
CNc1cccc2c1[nH]c1nc(Oc3cnc(C)nc3)nc(N3CCC4(CC4N)C3)c12 (centres unmarked) [3.42]	≤ 0.5	2 (≈ 4.8 µM)		
CNc1cc(F)c(F)c2c1[nH]c1nc(Oc3cnc(N)nc3)nc(N3CC4(CCC4N)C3)c12 (centres unmarked) [5.07]			≤0.5	1 (≈ 2.21 µM)
CNc1cc(F)cc2c1[nH]c1nc(Oc3cnc4c(c3)ncn4C)nc(N3CC4C[C@@H](N)C4C3)c12 (some centres unmarked) [4.227]	≤ 0.5	1 (≈ 2.11 µM)		
CNc1cc(F)cc2c1[nH]c1nc(Oc3cncnc3)nc(N3CC4C[C@@H](N)C4C3)c12 (some centres unmarked) [4.028]	≤ 0.5	≤ 0.5		
CCCc1ncc(Oc2nc(N3C[C@H](N)C4(CC4)C3)c3c(n2)[nH]c2c(NC)cc(F)cc23)cn1 [4.304]	≤ 0.5	≤ 0.5		
CNc1cc(F)cc2c1[nH]c1nc(Oc3cnc(N)nc3)nc(N3CC4CNC(C4)C3)c12 (centres unmarked) [4.175]	≤ 0.5	8 (≈ 18.4 µM)		
CNc1cc(F)cc2c1[nH]c1nc(Oc3cncc(-c4nnnn4C)c3)nc(N3CC4CC(N)C4C3)c12 (mixture of isomers) [4.171]			≤0.5	4
CNc1cccc2c1[nH]c1nc(Sc3cnc4cccnc4c3)nc(N3CCCCC(N)C3)c12 (centres unmarked) [1.45]	1 (≈ 2.12 µM)	4 (≈ 8.5 µM)		
CNc1cc(F)cc2c1[nH]c1nc(Oc3cnc4c(c3)C(=O)N(C)C4C)nc(N3CC4CC(N)C4C3)c12 (centres unmarked) [4.397]			≤0.5	≤0.5
CNc1cccc2c1[nH]c1nc(Oc3cncnc3)nc(N3CCC(N)CC3)c12 [3.64]	16 (≈ 41 µM)	64 (≈ 164 µM)		
